Laboratory results as given in US20190330140A1, “Compound for Use in Enzymatic Reaction and Mass Spectrometry Method” (HITACHI HIGH-TECHNOLOGIES CORPORATION, priority 2016, published 2019).

Test system: galactosidase
Assay: enzymatic reaction with galactosidase, product measured
Format: biochemical
Conditions: 0.5 ng/ml galactosidase, 1 hour
Protocol: When a solution of 20 ng/ml of HVG and 0.5 ng/ml of galactosidase in a 10 mmol/L phosphate buffer (pH 7.3) containing 5% (v/v) of methanol and 1 mmol of magnesium chloride was prepared and was reacted at 37° C. for 1 hour, 0.532 ng/ml of HV was then produced. […] It was found from this example that HVG has the same level of enzymatic susceptibility as p-nitrophenylgalactoside which is known as a good substrate for galactosidases.

Row | Compound | p-nitrophenol produced from substrate (substrate in place of HVG, phosphate buffer pH 7.3, 37° C.) [ng/mL] | HV produced from substrate (20 ng/ml HVG, 10 mmol/L phosphate buffer pH 7.3, 5% methanol, MgCl2, 37° C.) [ng/mL]
1 | O=[N+]([O-])c1ccc(O[C@@H]2O[C@H](CO)[C@H](O)[C@H](O)[C@H]2O)cc1 [p-Nitrophenyl galactoside] | 0.532 | 
2 | COc1ccc(CCN(C)CCCC(C(=O)Nc2ccc(O[C@@H]3OC(CO)[C@H](O)[C@@H](O)C3O)cc2)(c2ccc(OC)c(OC)c2)C(C)C)cc1OC (some centres unmarked) [HVG] |  | 0.532
